The text below walks through data of US20140206681A1, “BTK INHIBITORS” (priority 2013, published 2014).

Broadly, the pIC50 is −log10 of the IC50, conventionally taken in molar units.

Assay [1] addresses T1, BTK enzyme (recombinant full-length BTK, hBTK) (Homo sapiens, UniProt Q06187).
T1 construct: recombinant protein from baculovirus-transfected Sf9 cells: full-length BTK, 6HIS-tag cleaved; 6HIS (cleaved yes); made in house; host or cells: baculovirus-transfected Sf9 cells
Briefly: BTK enzyme activity assay, LANCE TR-FRET. Format: biochemical. The conditions noted are these: 50 pM hBTK, 2 μM biotin-A5-peptide, 25 μM ATP; 60 min compound & enzyme incubation; read-out: IC50 BTK activity value. Background: In TR-FRET formats the signal depends on donor and acceptor labels being close together.

Another assay has as its system HeLa cells. The assay is described as follows: [3H]Adenosine uptake functional cellular assay. Format: cell-based. As to conditions: Homo sapiens, HeLa, accumulation of [3H]adenosine into HeLa cells; compound range 10 μM to […]; read-out: Adenosine uptake inhibition IC50. A digest of the protocol: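 Inhibition of adenosine uptake was measured in HeLa cells (ATCC CCL-2) by following accumulation of tritiated adenosine. Cells were kept overnight at 37° C. with 5% (v/v) CO2, then switched to 40 μL HBSS plus 5% (v/v) FBS. 20 μL of 500 nM [3H]adenosine was added, and uptake was counted on a Topcount NXT reader.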

pIC50: −log10 of the molar value.

T1 sequence (Q06187 whole entry): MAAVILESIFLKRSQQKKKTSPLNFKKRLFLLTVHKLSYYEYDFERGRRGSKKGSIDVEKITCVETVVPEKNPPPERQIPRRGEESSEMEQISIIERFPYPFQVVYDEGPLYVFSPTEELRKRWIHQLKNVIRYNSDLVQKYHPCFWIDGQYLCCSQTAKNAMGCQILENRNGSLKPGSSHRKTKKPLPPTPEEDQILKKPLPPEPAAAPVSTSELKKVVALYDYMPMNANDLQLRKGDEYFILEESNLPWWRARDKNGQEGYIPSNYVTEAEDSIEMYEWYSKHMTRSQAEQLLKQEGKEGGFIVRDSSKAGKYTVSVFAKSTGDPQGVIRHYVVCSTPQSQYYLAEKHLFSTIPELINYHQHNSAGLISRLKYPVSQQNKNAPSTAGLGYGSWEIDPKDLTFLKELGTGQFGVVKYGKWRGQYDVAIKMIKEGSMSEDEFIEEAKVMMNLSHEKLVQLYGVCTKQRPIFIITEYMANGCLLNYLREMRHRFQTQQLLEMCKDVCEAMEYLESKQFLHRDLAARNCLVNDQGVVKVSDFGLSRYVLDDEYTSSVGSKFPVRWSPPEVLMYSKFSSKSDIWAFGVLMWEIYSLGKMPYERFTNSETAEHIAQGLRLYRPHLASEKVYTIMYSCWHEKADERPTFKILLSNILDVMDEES

On to `COc1ccnc(NC(=O)c2ccc(-c3nc([C@@H]4CC[C@H]5CCC(=O)N5C4)n4c(Cl)cnc(N)c34)c(OC)c2)c1` [Example 208, 4-{8-amino-5-chloro-3-[(6R,8aS)-3-oxooctahydroindolizin-6-yl]imidazo[1,5-a]pyrazin-1-yl}-3-methoxy-N-(4-methoxypyridin-2-yl)benzamide], for which the pIC50 in assay [1] was 8.80; in the assay with HeLa cells, 6.41.

In the case of `COc1cc(C(=O)Nc2cc(C3CCC3)ccn2)ccc1-c1nc([C@@H]2CC[C@H]3CCC(=O)N3C2)n2c(Cl)cnc(N)c12` [Example 209, 4-{8-amino-5-chloro-3-[(6R,8aS)-3-oxooctahydroindolizin-6-yl]imidazo[1,5-a]pyrazin-1-yl}-N-(4-cyclobutylpyridin-2-yl)-3-methoxybenzamide], the results for the pIC50 (in assay [1]; with HeLa cells) were 9.39 and 6.24, respectively.

For `COc1cc(C(=O)Nc2ccc(C)cn2)ccc1-c1nc([C@@H]2CC[C@H]3CCC(=O)N3C2)n2c(Cl)cnc(N)c12` [Example 210, 4-{8-amino-5-chloro-3-[(6R,8aS)-3-oxooctahydroindolizin-6-yl]imidazo[1,5-a]pyrazin-1-yl}-3-methoxy-N-(5-methylpyridin-2-yl)benzamide], the pIC50 in assay [1] is 8.85; with HeLa cells, 5.95.

For `Nc1ncc(C(F)(F)F)n2c([C@@H]3CC[C@H]4CCC(=O)N4C3)nc(-c3ccc(C(=O)Nc4cc(C(F)(F)F)ccn4)cc3Cl)c12` [Example 211, 4-{8-amino-3-[(6R,8aS)-3-oxooctahydroindolizin-6-yl]-5-(trifluoromethyl)imidazo[1,5-a]pyrazin-1-yl}-3-chloro-N-[4-(trifluoromethyl)pyridin-2-yl]benzamide], the pIC50 in assay [1] was 8.05; in the assay on HeLa cells, 6.57.

Turning to `Nc1ncc(C(F)(F)F)n2c([C@@H]3CC[C@H]4CCC(=O)N4C3)nc(-c3ccc(C(=O)Nc4cc(C5CC5)ccn4)cc3F)c12` [Example 212, 4-{8-amino-3-[(6R,8aS)-3-oxooctahydroindolizin-6-yl]-5-(trifluoromethyl)imidazo [1,5-a]pyrazin-1-yl}-N-(4-cyclopropylpyridin-2-yl)-3-fluorobenzamide], the values for the negative-log IC50 (pIC50) (in assay [1]; in the assay on HeLa cells) were 8.42 and 7.06, respectively.

In the case of `COc1cc(C(=O)Nc2cc(C(F)(F)F)ccn2)ccc1-c1nc([C@@H]2CC[C@H]3CCC(=O)N3C2)n2c(C(F)(F)F)cnc(N)c12` [Example 213, 4-{8-amino-3-[(6R,8aS)-3-oxooctahydroindolizin-6-yl]-5-(trifluoromethyl)imidazo[1,5-a]pyrazin-1-yl}-3-methoxy-N-[4-(trifluoromethyl)pyridin-2-yl]benzamide], the negative-log IC50 (pIC50) is 8.57 in assay [1] and 6.16 with HeLa cells.

For `Cc1cc(C(=O)Nc2cc(C(F)(F)F)ccn2)cc(F)c1-c1nc([C@@H]2CC[C@H]3CCC(=O)N3C2)n2ccnc(N)c12` [Example 214, 4-{8-amino-3-[(6R,8aS)-3-oxooctahydroindolizin-6-yl]imidazo[1,5-a]pyrazin-1-yl}-3-fluoro-5-methyl-N-[4-(trifluoromethyl)pyridin-2-yl]benzamide], the pIC50 in assay [1] is 8.66; with HeLa cells, 6.29.

In the case of `CCOc1cc(C(=O)Nc2cc(C(F)(F)F)n(C)n2)ccc1-c1nc([C@@H]2CC[C@H]3CCC(=O)N3C2)n2c(C(F)(F)F)cnc(N)c12` [Example 215, 4-{8-amino-3-[(6R,8aS)-3-oxooctahydroindolizin-6-yl]-5-(trifluoromethyl)imidazo[1,5-a]pyrazin-1-yl}-3-ethoxy-N-[1-methyl-5-(trifluoromethyl)-1H-pyrazol-3-yl]benzamide], the pIC50 in assay [1] is 8.40; in the assay with HeLa cells it was 5.61.

Regarding `CC(F)(F)Oc1cc(C(=O)Nc2cc(C(F)(F)F)ccn2)ccc1-c1nc([C@@H]2CC[C@H]3CCC(=O)N3C2)n2c(Cl)cnc(N)c12` [Example 216, 4-{8-amino-5-chloro-3-[(6R,8aS)-3-oxooctahydroindolizin-6-yl]imidazo[1,5-a]pyrazin-1-yl}-3-(1,1-difluoroethoxy)-N-[4-(trifluoromethyl)pyridin-2-yl]benzamide], the pIC50 in assay [1] was 8.18; with HeLa cells it was 6.05.

`COc1cc(C(=O)Nc2cc(C(F)(F)F)ccn2)cc(F)c1-c1nc([C@@H]2CC[C@H]3CCC(=O)N3C2)n2c(Cl)cnc(N)c12` [Example 217, 4-{8-amino-5-chloro-3-[(6R,8aS)-3-oxooctahydroindolizin-6-yl]imidazo[1,5-a]pyrazin-1-yl}-3-fluoro-5-methoxy-N-[4-(trifluoromethyl)pyridin-2-yl]benzamide]: the pIC50 was 9.77 in assay [1] and 6.15 in the assay on HeLa cells.

For `COc1cc(C(=O)Nc2cc(C(F)(F)F)ccn2)c(Cl)cc1-c1nc([C@@H]2CC[C@H]3CCC(=O)N3C2)n2c(Cl)cnc(N)c12` [Example 218, 4-{8-amino-5-chloro-3-[(6R,8aS)-3-oxooctahydroindolizin-6-yl]imidazo[1,5-a]pyrazin-1-yl}-2-chloro-5-methoxy-N-[4-(trifluoromethyl)pyridin-2-yl]benzamide], the pIC50 was 8.74 in assay [1] and 5.31 with HeLa cells.

Regarding `COc1cc(C(=O)Nc2cc(C(F)(F)F)ccn2)cc(F)c1-c1nc([C@@H]2CC[C@H]3CC(C)(C)C(=O)N3C2)n2ccnc(N)c12` [Example 219, 4-{8-amino-3-[(6R,8aS)-2,2-dimethyl-3-oxooctahydroindolizin-6-yl]imidazo[1,5-a]pyrazin-1-yl}-3-fluoro-5-methoxy-N-[4-(trifluoromethyl)pyridin-2-yl]benzamide], the pIC50 in assay [1] was 9.55; with HeLa cells it was 6.14.

As for `COc1cc(C(=O)Nc2cc(C(F)(F)F)ccn2)cc(F)c1-c1nc([C@@H]2CC[C@H]3CCC(=O)N3C2)n2c(F)cnc(N)c12` [Example 220, 4-{8-amino-5-fluoro-3-[(6R,8aS)-3-oxooctahydroindolizin-6-yl]imidazo[1,5-a]pyrazin-1-yl}-3-fluoro-5-methoxy-N-[4-(trifluoromethyl)pyridin-2-yl]benzamide], the negative logarithm of the IC50 (pIC50) in assay [1] is 9.40; in the assay on HeLa cells it was 5.82.
